Data: a melting point compilation (Tetko et al.)

melting point | SMILES
106 to 108 °C | COc1ccc(N)cc1OCc1ccc2ccccc2n1
189 to 191 °C | Nc1cccc(N2C(=O)c3ccccc3C2=O)c1
139 to 141 °C | O=C(O)c1cn(-c2cccc(Cl)c2F)nn1
206 to 208 °C | Cc1cccc(-c2nnc(N)[nH]2)n1
118 to 120 °C | CCN(CC)C(=O)c1ccc(N)cc1
172 to 174 °C | CNS(=O)(=O)c1ccc(-c2ccccc2OC(F)(F)F)c(C(=O)O)c1
140 to 142 °C | O=C(Cc1ncc[nH]1)c1ccc(Cl)cc1F
124 to 126 °C | O=Cc1cnn(-c2ccc(Br)cc2)c1
98 to 100 °C | Cc1ccc(N)c(C(=O)N(C)C)c1
142 to 144 °C | O=C(O)c1ccc(Cl)cc1-n1cccc1
139 to 141 °C | Nc1sc2c(c1C(=O)c1ccc(F)cc1)CCC2
130 to 132 °C | O=C(O)Cc1ccc(-n2cccn2)cc1
148 to 150 °C | Clc1ccnc2c(Br)cccc12
112 to 114 °C | Nc1cnc(-c2cccc(F)c2)nc1
66 to 68 °C | NCc1ccc(-c2cccnc2)cc1
153 to 155 °C | Nc1cccc(C(=O)Nc2ccc(Br)cn2)c1
209 to 211 °C | CCc1c(C(=O)O)cnn1-c1ccc(Br)cc1
90 to 92 °C | COc1ccc(C(=O)c2ccc(F)cc2)cc1

Further lines, the molecule ahead of its results:

SMILES | melting point
O=S1(=O)CCC(Nc2ccccc2)C1 (stereo not given) | 119 to 123 °C
Cc1noc(C)c1C(C)C(=O)O (stereo not given) | 101 to 103 °C
N#CCc1csc(-c2ccccc2)n1 | 57 to 59 °C
N#Cc1ccc(C(=O)O)nc1 | 210 to 215 °C
Fc1ccc(-n2ncc3c(Cl)ncnc32)cc1 | 154 to 156 °C
C=CCn1c(S)nnc1C1CCS(=O)(=O)C1 (stereo not given) | 101 to 103 °C
Cc1nc(=NCC(=O)O)c2cc(-c3ccccc3)sc2[nH]1 | 257 to 259 °C
CS(=O)(=O)NCCCN | 61 to 63 °C
Cc1csc(NC(=O)C2CCCNC2)n1 (stereo not given) | 164 to 166 °C
Cc1occc1-c1nnc(S)n1C | 118 to 120 °C
NS(=O)(=O)c1cc(Br)c(Cl)c(C(=O)O)c1 | 219 to 221 °C
O=[N+]([O-])c1ccc(Cl)c(S(=O)(=O)N2CCCC2)c1 | 114 to 116 °C
Cc1occc1-c1nnc(S)n1Cc1ccccc1 | 134 to 136 °C
CNc1cc(F)ccc1[N+](=O)[O-] | 110 to 112 °C
CS(=O)(=O)c1ccccc1N | 62 to 64 °C
CCOC(=O)COc1ccc(C(N)=S)cc1 | 126 to 128 °C
COc1ccc(-c2nnc(S)o2)cc1OC | 251 to 253 °C
CCOC(=O)c1c(N)sc2c1CCC(CC)C2 (stereo not given) | 88 to 90 °C
O=C(Nc1sc2c(c1C(=O)O)CCC2)c1ccco1 | 242 to 244 °C

SMILES | melting point
O=[N+]([O-])c1cc2c(cc1Br)OCCO2 | 167 to 169 °C
N#Cc1ccc(S)cc1C(F)(F)F | 71 to 73 °C
Cc1ccc(NC(=O)OC(C)(C)C)cc1O | 109 to 111 °C
CC(C)OC(=O)CC(N)=S | 68 to 70 °C
CCCc1cc(Cl)n2nc(C(=O)OC)nc2n1 | 117 to 119 °C
COc1cc(-n2cnnn2)c(Cl)cc1C(=O)O | 331 to 333 °C
Sc1nnc(-c2ccccc2)c2ccccc12 | 178 to 180 °C
O=C(O)C=Cc1ccc(Br)o1 | 125 to 135 °C
Cn1c(S)nnc1-c1ccccc1Cl | 144 to 146 °C
COCCN(C(=O)CCl)c1c(N)n(CC(C)C)c(=O)[nH]c1=O | 204 to 206 °C
O=[N+]([O-])c1ccc2c(S(=O)(=O)Cl)c[nH]c2c1 | 173 to 175 °C
CC(C)Cc1ccc(-c2csc(N)n2)cc1 | 108 to 110 °C
COc1ccc(-c2nc(CO)cs2)cc1 | 74 to 76 °C
COc1nc(Cl)nc(Cl)n1 | 89 to 91 °C
O=C1NC(=O)C2(CCCc3ccccc32)N1 (stereo not given) | 203 to 205 °C
O=C(O)c1nnc2c(C(F)(F)F)cccn12 | 139 to 141 °C
NC(CC(=O)N1CCOCC1)=NO | 147 to 149 °C
COc1ccc(S(=O)(=O)N(C)C)cc1NC(=O)CCl | 152 to 154 °C
